The values below come from PMC6201084 (Antimicrobial Agents and Chemotherapy, 2018).

For orientation: IC50 means the concentration that gives 50% inhibition.

In test [1] the target is neuraminidase (NA) of influenza B/England/598/2014 (WT-H273) (Influenza B virus, UniProt A0A1S5RAG6). The format is biochemical.
Test [2] concerns the target neuraminidase (NA) of influenza B/Minnesota/23/2015 (WT-D197) (Influenza B virus, UniProt A0A1S5RAG6). The format is biochemical. Conditions: three independent experiments, read-out: IC50 (nM), mean ± SD.

Like-named read-outs stand apart in the source and are kept apart here.

neuraminidase (NA) of influenza B/England/598/2014 (WT-H273), sequence (A0A1S5RAG6 entry or part of it, added parts left off): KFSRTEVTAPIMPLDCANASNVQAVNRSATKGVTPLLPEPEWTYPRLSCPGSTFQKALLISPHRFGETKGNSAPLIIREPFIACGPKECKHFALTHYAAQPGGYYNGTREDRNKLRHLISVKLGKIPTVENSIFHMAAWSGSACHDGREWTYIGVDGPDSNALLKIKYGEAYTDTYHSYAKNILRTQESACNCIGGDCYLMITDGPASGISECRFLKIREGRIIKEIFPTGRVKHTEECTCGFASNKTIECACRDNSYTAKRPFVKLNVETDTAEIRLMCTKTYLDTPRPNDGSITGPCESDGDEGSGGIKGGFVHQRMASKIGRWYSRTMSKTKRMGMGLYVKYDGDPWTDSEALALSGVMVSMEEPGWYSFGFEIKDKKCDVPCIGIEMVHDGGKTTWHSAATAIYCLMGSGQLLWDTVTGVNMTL
neuraminidase (NA) of influenza B/Minnesota/23/2015 (WT-D197), sequence (A0A1S5RAG6 entry or part of it, added parts left off): as above

As for `CCC(CC)[C@H](NC(C)=O)[C@@H]1[C@H](O)[C@@H](C(=O)O)C[C@H]1N=C(N)N` [Peramivir, peramivir], the 50% inhibitory concentration (IC50) in test [1] (WT-H273 virus, three independent experiments, read-out: IC50 (nM), mean ± SD) is 1 ± 0.05 nM; in test [1] (approximate value given in discussion for wild-type influenza B viruses, read-out: IC50 for wild-type influenza B viruses) it was approximately 1 nM; in test [2] it was 1 ± 0.1 nM.
